Tests used:
A-375 = assay: In vitro antitumor activity against A375cell line extracted form melanoma; format: functional, cell-based; details: Homo sapiens
L1210 [1] = assay: In vitro antitumor activity using the incorporation of thymidine and uridine into DNA of L1210 cells at time 3 hr; format: functional, Mus musculus
COLO 320DM = assay: In vitro antitumor activity against COLO 320DM cell line extracted form colon adenocarcinoma; format: functional, cell-based; details: Homo sapiens
PANC-1 = assay: In vitro antitumor activity against PANC cell line extracted form pancreas adenocarcinoma; format: functional, cell-based; details: Homo sapiens
HT-1080 = assay: In vitro antitumor activity against HT1080 cell line extracted form fibrosarcoma; format: functional, cell-based; details: Homo sapiens
L1210 [2] = assay: In vitro antitumor activity using the incorporation of thymidine and uridine into RNA of L1210 cells at time 1 hr; format: functional, Mus musculus
L1210 [3] = assay: In vitro antitumor activity using the incorporation of thymidine and uridine into DNA of L1210 cells at time 2 hr; format: functional, Mus musculus
HL-60 = assay: In vitro antitumor activity against HL-60 cell line extracted formpromyelocytic leukemia; format: functional, cell-based; details: Homo sapiens
CCRF-CEM = assay: In vitro antitumor activity against CCRF-CEM cell line extracted form acute lymphoblastic leukemia; format: functional, cell-based; details: Homo sapiens
L1210 [4] = assay: In vitro antitumor activity using the incorporation of thymidine and uridine into DNA of L1210 cells at time 1 hr; format: functional, Mus musculus
MIA PaCa-2 = assay: In vitro antitumor activity against MiaPaCa-2 cell line extracted form pancreas adenocarcinoma; format: functional, cell-based; details: Homo sapiens
L1210 [5] = assay: In vitro antitumor activity using the incorporation of thymidine and uridine into RNA of L1210 cells at time 3 hr; format: functional, Mus musculus
L1210 [6] = assay: In vitro antitumor activity using the incorporation of thymidine and uridine into RNA of L1210 cells at time 2 hr; format: functional, Mus musculus
K562 = assay: In vitro antitumor activity against K562 cell line extracted formchronic myelogenous leukemia; format: functional, cell-based; details: Homo sapiens
Huh-7 = assay: In vitro antitumor activity against HuH7 cell line extracted form hepatoma; format: functional, cell-based; details: Homo sapiens
MCF7 = assay: In vitro antitumor activity against MCF-7 cell line extracted form mammary carcinoma; format: functional, cell-based; details: Homo sapiens

IC50 (A-375): 890 nM
IC50 (COLO 320DM): 8.93 µM
IC50 (PANC-1): 69.1 µM
IC50 (HT-1080): 2530 nM
IC50 (HL-60): 5.76 µM
IC50 (CCRF-CEM): 1730 nM
IC50 (MIA PaCa-2): 4 µM
IC50 (K562): 2770 nM
IC50 (Huh-7): 1470 nM
IC50 (MCF7): 1300 nM
Structure (SMILES): Nc1ccn(C2OC(CO)[C@@H](O)[C@H]2NO)c(=O)n1 (stereo partly specified)
Inhibition (L1210 [1]): 95%
Inhibition (L1210 [2]): 21%
Inhibition (L1210 [3]): 98%
Inhibition (L1210 [4]): 83%
Inhibition (L1210 [5]): 23%
Inhibition (L1210 [6]): 20%

From ChEMBL document CHEMBL1130896, “Nucleosides and nucleotides. 176. 2'-Deoxy-2'-hydroxylaminocytidine: a new antitumor nucleoside that inhibits DNA synthesis although it has a ribonucleoside structure” (Bioorg Med Chem Lett, 1998)
